# Laboratory results: patent US9676780B2, “Piperazine-substituted [1,2,4]triazolo[1,5-C]quinazolin-5-amine compounds with A2A antagonist properties” (MERCK SHARP & DOHME CORP., priority 2012, dated 2017)
# Molecular target: T1, human A2a receptor (Homo sapiens, UniProt P29274)
# T1 construct: purchased Perkin-Elmer RBHA2AM400UA; host or cells: HEK293
# Assay: A2a receptor competition binding assay (Scintillation Proximity, tritiated radioligand)
# Conditions: membranes from HEK293 cells expressing the human A2a receptor; 0.5 nM tritiated ligand; SPA beads; one hour at room temperature; read-out: A2a EC50
# Procedure: Binding affinities of compounds of the invention for the human A2a receptor were determined in a competition binding assay using Scintillation Proximity technology. […] The beads were then allowed to settle to the bottom of the wells for 1 hr, after which the membrane-associated radioactivity was determined by scintillation counting in a TopCount microplate reader. Ki values were determined using the Cheng-Prusoff equation.
# • HEK293 cells expressing the human, rat, dog or monkey adenosine 2a receptor (Purchased from Perkin-Elmer # RBHA2AM400UA). • The Tritiated compound was prepared in-house by MRL Radiochemistry according to published methods. • Wheatgerm agglutinin-coated yttrium silicate SPA beads (GE Healthcare #RPNQ0023). […] This is a 2.5× solution. The final concentration in the assay is 0.5 nM. Calculate the concentration by counting two 5 ul aliquots. Membrane Preparation • Use 0.25 ug of membrane/well. Dilute membranes to 9.7 ug/ml in assay buffer. Treat with 20 ug/ml adenosine deaminase (ADA) for 15 minutes at room temperature to degrade endogenous adenosine. Membrane-Bead Mixture • Use 100 ug/well wheatgerm agglutinin-coated yttrium silicate SPA beads. • Mix ADA-treated membranes and SPA beads together for 30 min prior to assay. […] Incubate for one hour at room temperature with agitation. • Include total binding (assay buffer+1% DMSO) and non-specific binding (CGS15943, 1 uM) wells. Counting • Allow the beads to settle for one hour. • Count in TopCount. Calculations • A curve fitting program (i.e., Prism, Activity Base, Chemcart) is used to determine the EC50.
# The Ki value is calculated using the Cheng-Prusoff equation. Ki=EC50/(1+(radioligand concentration/Kd))
# T1 sequence (P29274 whole entry): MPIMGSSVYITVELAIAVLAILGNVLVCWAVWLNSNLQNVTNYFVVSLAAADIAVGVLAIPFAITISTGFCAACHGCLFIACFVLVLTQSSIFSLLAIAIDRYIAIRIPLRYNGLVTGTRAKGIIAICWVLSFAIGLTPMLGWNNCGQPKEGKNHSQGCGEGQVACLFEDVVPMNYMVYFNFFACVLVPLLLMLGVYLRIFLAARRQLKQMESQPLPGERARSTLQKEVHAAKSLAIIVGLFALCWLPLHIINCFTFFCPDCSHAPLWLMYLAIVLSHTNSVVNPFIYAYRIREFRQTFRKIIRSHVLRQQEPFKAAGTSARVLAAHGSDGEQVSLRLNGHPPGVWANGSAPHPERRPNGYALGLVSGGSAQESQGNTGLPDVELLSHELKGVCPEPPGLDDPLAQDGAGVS
row,EC50,SMILES
1,190 nM,COc1cccc2c1nc(N)n1nc(CN3CCN(C)CC3c3ccccc3)nc21 (centres unmarked) [Ex-3]
2,21.2 nM,COc1cccc2c1nc(N)n1nc(CN3CC(C)N(c4ccccc4)CC3C)nc21 (centres unmarked) [Ex-8]
3,7.68 nM,COc1cc(F)cc2c1nc(N)n1nc(CN3CCN(c4ccc(F)cc4)CC3C)nc21 (centres unmarked) [Ex-11]
4,88 nM,CCn1ccnc1CN1CCN(Cc2nc3c4cccc(OC)c4nc(N)n3n2)C(C)C1 (centres unmarked) [Ex-12]
5,87.1 nM,COc1cccc2c1nc(N)n1nc(CN3CCN(Cc4nc5ccncc5n4C)CC3C)nc21 (centres unmarked) [Ex-13]
6,52.8 nM,CCn1cncc1CN1CCN(Cc2nc3c4cccc(OC)c4nc(N)n3n2)C(C)C1 (centres unmarked) [Ex-14]
7,8.1 nM,COc1cccc2c1nc(N)n1nc(CN3CCN(Cc4c(C)nc5scnn45)CC3C)nc21 (centres unmarked) [Ex-15]
8,36.5 nM,COc1cccc2c1nc(N)n1nc(CN3CCN(Cc4ncco4)CC3C)nc21 (centres unmarked) [Ex-16]
9,26.7 nM,COc1cccc2c1nc(N)n1nc(CN3CCN(Cc4nccs4)CC3C)nc21 (centres unmarked) [Ex-17]
10,26.9 nM,COc1cccc2c1nc(N)n1nc(CN3CCN(Cc4cccc(C)n4)CC3C)nc21 (centres unmarked) [Ex-18]
11,29.6 nM,COc1cccc2c1nc(N)n1nc(CN3CCN(Cc4ncccc4F)CC3C)nc21 (centres unmarked) [Ex-19]
12,51.7 nM,COc1cc(CN2CCN(Cc3nc4c5cccc(OC)c5nc(N)n4n3)C(C)C2)cc(OC)c1 (centres unmarked) [Ex-20]
13,20.3 nM,COc1cccc2c1nc(N)n1nc(CN3CCN(Cc4ccc(F)cc4F)CC3C)nc21 (centres unmarked) [Ex-21]
14,10 nM,COc1cccc2c1nc(N)n1nc(CN3CCN(Cc4cccc(Oc5ccccc5)c4)CC3C)nc21 (centres unmarked) [Ex-22]
15,17.7 nM,COc1cccc2c1nc(N)n1nc(CN3CCN(Cc4ccc(F)c(F)c4)CC3C)nc21 (centres unmarked) [Ex-23]
16,14.4 nM,COc1cccc2c1nc(N)n1nc(CN3CCN(Cc4c(F)cccc4F)CC3C)nc21 (centres unmarked) [Ex-24]
17,34.5 nM,COc1ccc(CN2CCN(Cc3nc4c5cccc(OC)c5nc(N)n4n3)C(C)C2)cc1F (centres unmarked) [Ex-25]
18,21.8 nM,COc1cccc2c1nc(N)n1nc(CN3CCN(Cc4cc(F)cc(F)c4)CC3C)nc21 (centres unmarked) [Ex-26]
19,6.8 nM,COc1cccc2c1nc(N)n1nc(CN3CCN(Cc4cccc(Cl)c4F)CC3C)nc21 (centres unmarked) [Ex-27]
20,15.6 nM,COc1cccc2c1nc(N)n1nc(CN3CCN(Cc4ccc(F)c(C)c4)CC3C)nc21 (centres unmarked) [Ex-28]
21,18.6 nM,COc1cccc2c1nc(N)n1nc(CN3CCN(Cc4ccc(F)c(F)c4F)CC3C)nc21 (centres unmarked) [Ex-29]
22,9.2 nM,COc1cccc2c1nc(N)n1nc(CN3CCN(Cc4cc(F)c(F)cc4F)CC3C)nc21 (centres unmarked) [Ex-30]
23,49.1 nM,COc1cccc2c1nc(N)n1nc(CN3CCN(Cc4ccc(N5CCCC5)cc4)CC3C)nc21 (centres unmarked) [Ex-31]
24,78.3 nM,COc1cccc2c1nc(N)n1nc(CN3CCN(Cc4ccc(N(C)C)cc4)CC3C)nc21 (centres unmarked) [Ex-32]
25,35.9 nM,COc1cccc2c1nc(N)n1nc(CN3CCN(Cc4ccc(N5CCCC5=O)cc4)CC3C)nc21 (centres unmarked) [Ex-33]
26,18.5 nM,COc1cccc2c1nc(N)n1nc(CN3CCN(c4ccc(Cl)cc4)C[C@@H]3C)nc21 [Ex-34]

row,EC50,SMILES
1,3.7 nM,COc1cccc2c1nc(N)n1nc(CN3CCN(c4ccc(Cl)cc4)C[C@H]3C)nc21 [Ex-35]
2,18.1 nM,COc1cccc2c1nc(N)n1nc(CN3CCN(Cc4cc(C)ccc4C)CC3C)nc21 (centres unmarked) [Ex-36]
3,48.9 nM,COc1cc(F)cc2c1nc(N)n1nc(CN3CCN(c4ccc(F)cc4)CC3C)nc21 (centres unmarked) [Ex-37]
4,22.6 nM,COc1cccc2c1nc(N)n1nc(CN3CCN(c4ccc(C(F)(F)F)cn4)CC3C)nc21 (centres unmarked) [Ex-40]
5,18.1 nM,COc1cc(F)cc2c1nc(N)n1nc(CN3CCN(c4ccc(F)cn4)CC3C)nc21 (centres unmarked) [Ex-41]
6,28.3 nM,COc1cc(F)cc2c1nc(N)n1nc(CN3CCN(c4ccc(C(F)(F)F)cn4)CC3C)nc21 (centres unmarked) [Ex-42]
7,2.11 nM,COc1cccc2c1nc(N)n1nc(CN3CCN(c4ccc(F)cc4)C[C@H]3C3CC3)nc21 [Ex-43]
8,3.6 nM,COc1cccc2c1nc(N)n1nc(CN3CCN(c4ccc(F)cc4)C[C@H]3C(C)C)nc21 [Ex-44]
9,5.7 nM,CC[C@@H]1CN(c2ccc(F)cc2)CCN1Cc1nc2c3cccc(OC)c3nc(N)n2n1 [Ex-45]
10,50.2 nM,CCC1CN(C(=O)c2ccc(F)cc2)CC(C)N1Cc1nc2c3cccc(OC)c3nc(N)n2n1 (centres unmarked) [Ex-46]
11,59.2 nM,COc1cccc2c1nc(N)n1nc(CN3CCN(c4ccccc4C(F)(F)F)CC3C)nc21 (centres unmarked) [Ex-47]
12,18.2 nM,COc1cccc2c1nc(N)n1nc(CN3CCN(c4ccc(C(F)(F)F)cc4)CC3C)nc21 (centres unmarked) [Ex-48]
13,4.9 nM,COc1cccc2c1nc(N)n1nc(C(C)N3CCN(c4ccc(F)cc4)CC3C)nc21 (centres unmarked) [Ex-49]
14,139 nM,"COc1cccc2c1nc(N)n1nc(C(C)N3CCN(c4ccc(F)cc4)C[C@H]3C)nc21 (stereo partly drawn) [Ex-50, 2-{1-[(2R)-4-(4-fluorophenyl)-2-methylpiperazin-1-yl]ethyl}-7-methoxy[1,2,4]triazolo[1,5-c]quinazolin-5-amine]"
15,73.8 nM,COc1cccc2c1nc(N)n1nc(CN3CCN(c4nccs4)CC3C)nc21 (centres unmarked) [Ex-51]
16,48.5 nM,COc1cccc2c1nc(N)n1nc(CN3CCN(c4noc(C)n4)CC3C)nc21 (centres unmarked) [Ex-52]
17,15.9 nM,COc1cccc2c1nc(N)n1nc(CN3CCN(c4noc(C5CC5)n4)CC3C)nc21 (centres unmarked) [Ex-53]
18,106 nM,COc1cccc2c1nc(N)n1nc(CN3CCN(c4nnn[nH]4)CC3C)nc21 (centres unmarked) [Ex-54]
19,5.2 nM,COc1cccc2c1nc(N)n1nc(CN3CCN(c4cccc(C(F)(F)F)c4)C[C@H]3C)nc21 [Ex-55]
20,12.4 nM,COc1cccc2c1nc(N)n1nc(CN3CCN(c4ccccc4Cl)CC3C)nc21 (centres unmarked) [Ex-58]
21,30.9 nM,COc1cccc2c1nc(N)n1nc(CN3CCN(c4ccccc4C#N)CC3C)nc21 (centres unmarked) [Ex-59]
22,18.8 nM,COc1cccc2c1nc(N)n1nc(CN3CCN(c4cccc(C#N)c4)CC3C)nc21 (centres unmarked) [Ex-60]
23,11.4 nM,COc1cccc2c1nc(N)n1nc(CN3CCN(c4ccc(C#N)cc4)CC3C)nc21 (centres unmarked) [Ex-61]
24,1.44 nM,COc1cccc2c1nc(N)n1nc(CN3CCN(c4ccc5ncccc5c4)CC3C)nc21 (centres unmarked) [Ex-63]
25,13.1 nM,COc1cccc2c1nc(N)n1nc(CN3CCN(c4ccccc4C)CC3C)nc21 (centres unmarked) [Ex-64]
26,7 nM,COc1cccc2c1nc(N)n1nc(CN3CCN(c4cccc(C)c4)CC3C)nc21 (centres unmarked) [Ex-65]

row,EC50,SMILES
1,3 nM,COc1cccc2c1nc(N)n1nc(CN3CCN(c4ccc(C)cc4)CC3C)nc21 (centres unmarked) [Ex-66]
2,11.5 nM,COc1cccc2c1nc(N)n1nc(CN3CCN(c4cccc5ccccc45)CC3C)nc21 (centres unmarked) [Ex-71]
3,6.7 nM,COc1cccc2c1nc(N)n1nc(CN3CCN(c4ccc5ccccc5c4)CC3C)nc21 (centres unmarked) [Ex-72]
4,31.8 nM,COc1cccc2c1nc(N)n1nc(CN3CCN(c4nnc(C)s4)CC3C)nc21 (centres unmarked) [Ex-74]
5,47.4 nM,COc1cccc2c1nc(N)n1nc(CN3CCN(c4nncs4)CC3C)nc21 (centres unmarked) [Ex-75]
6,21.1 nM,COCc1nc(N2CCN(Cc3nc4c5cccc(OC)c5nc(N)n4n3)C(C)C2)no1 (centres unmarked) [Ex-79]
7,19.4 nM,COc1cccc2c1nc(N)n1nc(CN3CCN(c4noc(C(C)C)n4)CC3C)nc21 (centres unmarked) [Ex-80]
8,68.2 nM,COc1cccc2c1nc(N)n1nc(CN3CCN(c4ncc(C(=O)O)s4)CC3C)nc21 (centres unmarked) [Ex-81]
9,628 nM,COc1cccc2c1nc(N)n1nc(CN3CCN(c4noc(=O)[nH]4)CC3C)nc21 (centres unmarked) [Ex-82]
10,47.6 nM,COc1cccc2c1nc(N)n1nc(CN3CCN(c4noc(C(F)(F)F)n4)CC3C)nc21 (centres unmarked) [Ex-83]
11,57.2 nM,COc1cccc2c1nc(N)n1nc(CN3CCN(c4nnc(C)[nH]4)CC3C)nc21 (centres unmarked) [Ex-84]
12,21.5 nM,CCc1nc(N2CCN(Cc3nc4c5cccc(OC)c5nc(N)n4n3)C(C)C2)no1 (centres unmarked) [Ex-87]
13,22.2 nM,COc1cccc2c1nc(N)n1nc(CN3CCN(c4noc(C(C)(C)C)n4)CC3C)nc21 (centres unmarked) [Ex-88]
14,72.2 nM,COc1cccc2c1nc(N)n1nc(CN3CCN(c4ncns4)CC3C)nc21 (centres unmarked) [Ex-89]
15,53.5 nM,COc1cccc2c1nc(N)n1nc(CN3CCN(C(=O)c4nc(C5CC5)no4)CC3C)nc21 (centres unmarked) [Ex-90]
16,42.2 nM,COc1cccc2c1nc(N)n1nc(CN3CCN(c4nc(C(C)(C)C)no4)CC3C)nc21 (centres unmarked) [Ex-91]
17,5.2 nM,COc1cccc2c1nc(N)n1nc(CN3CCN(C(C)c4ccc(F)cc4F)CC3C)nc21 (centres unmarked) [Ex-92]
18,4.6 nM,COc1cccc2c1nc(N)n1nc(CN3CCN(C(C)c4ccc(F)cc4F)CC3C)nc21 (centres unmarked) [Ex-93]
19,1.85 nM,COCCOc1ccc(N2CCN(Cc3nc4c5cccc(OC)c5nc(N)n4n3)C(C)C2)cc1 (centres unmarked) [Ex-94]
20,3.1 nM,COc1cccc2c1nc(N)n1nc(CN3CCN(c4ccc(F)cc4F)CC3C)nc21 (centres unmarked) [Ex-95]
21,3.41 nM,COc1cc(F)ccc1N1CCN(Cc2nc3c4cccc(OC)c4nc(N)n3n2)C(C)C1 (centres unmarked) [Ex-96]
22,18.2 nM,COc1cccc2c1nc(N)n1nc(CN3CCN(c4ccnc(C(F)(F)F)c4)CC3C)nc21 (centres unmarked) [Ex-97]
23,39.7 nM,COc1cccc2c1nc(N)n1nc(CN3CCN(c4cc(C)ccn4)CC3C)nc21 (centres unmarked) [Ex-98]
24,46.3 nM,COc1cccc2c1nc(N)n1nc(CN3CCN(c4cccc(C)n4)CC3C)nc21 (centres unmarked) [Ex-99]
25,29.4 nM,COc1cccc2c1nc(N)n1nc(CN3CCN(c4ccncc4C(F)(F)F)CC3C)nc21 (centres unmarked) [Ex-100]
